Source: publication PMC10536273, “Development of Masitinib Derivatives with Enhanced M^pro Ligand Efficiency and Reduced Cytotoxicity” (Molecules, 2023)
Counter-ions that a name gives are not always drawn. Like-named read-outs stand apart in the source and are kept apart here.

Experiments:
A549 cells [1] = conditions: human
c-Kit enzyme = c-Kit enzyme (Homo sapiens, UniProt P10721); experiment: Luminescence-based in vitro c-Kit kinase assay; format: biochemical
HCoV-OC43 = experiment: microbe, parasite or virus in culture; format: cell-based; conditions: for IC50: read-out: IC50, HCoV-OC43 antiviral assay
SARS-CoV-2 M^pro = SARS-CoV-2 M^pro (Severe acute respiratory syndrome coronavirus 2, UniProt P0DTD1); experiment: cell-based; conditions: transfected HEK-293T cells, 24 h; for IC50: read-out: IC50 (approximate), SARS-CoV-2 M^pro activity, GFP normalized to TagBFP2
M^pro = conditions: masitinib activity on M^pro; read-out: inhibition constant, Ki; cited from earlier work
A549 cells [2] = experiment: Compound toxicity assay, live cell imaging of A549 cell growth; conditions: compared to DMSO
[3] = A549+hACE2 cells, MOI 0.1, 48 h, normalized to DMSO

Sequence of c-Kit enzyme (P10721 26-976): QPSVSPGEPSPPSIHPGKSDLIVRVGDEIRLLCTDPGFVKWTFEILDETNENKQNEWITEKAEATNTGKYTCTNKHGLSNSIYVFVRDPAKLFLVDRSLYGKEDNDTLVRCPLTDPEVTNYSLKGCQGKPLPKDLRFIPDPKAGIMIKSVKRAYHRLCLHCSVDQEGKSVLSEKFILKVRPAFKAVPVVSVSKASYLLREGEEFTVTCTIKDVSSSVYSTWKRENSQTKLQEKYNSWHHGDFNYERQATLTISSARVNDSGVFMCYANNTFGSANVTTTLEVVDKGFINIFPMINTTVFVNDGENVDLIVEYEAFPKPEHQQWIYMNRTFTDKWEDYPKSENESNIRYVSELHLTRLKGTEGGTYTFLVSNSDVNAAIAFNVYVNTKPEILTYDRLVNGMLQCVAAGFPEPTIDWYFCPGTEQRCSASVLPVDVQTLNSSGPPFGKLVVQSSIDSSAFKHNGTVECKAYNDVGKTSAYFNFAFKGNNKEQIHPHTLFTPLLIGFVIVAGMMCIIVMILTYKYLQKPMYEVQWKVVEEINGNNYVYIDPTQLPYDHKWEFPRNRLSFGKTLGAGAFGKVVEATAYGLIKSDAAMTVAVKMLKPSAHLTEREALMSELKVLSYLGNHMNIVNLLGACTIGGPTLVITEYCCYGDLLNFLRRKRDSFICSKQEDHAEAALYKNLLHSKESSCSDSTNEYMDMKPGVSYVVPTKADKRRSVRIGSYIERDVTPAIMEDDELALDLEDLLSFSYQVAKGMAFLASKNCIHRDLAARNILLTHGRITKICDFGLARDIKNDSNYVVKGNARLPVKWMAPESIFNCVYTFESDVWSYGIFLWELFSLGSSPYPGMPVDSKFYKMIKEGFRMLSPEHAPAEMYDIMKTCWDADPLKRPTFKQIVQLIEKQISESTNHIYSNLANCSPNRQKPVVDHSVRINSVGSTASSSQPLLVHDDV

SMILES | Doubling Time (A549 cells [1]; 0.3 µM) [h] | Doubling Time (A549 cells [1]; 1 µM) [h] | Doubling Time (A549 cells [1]; 3 µM) [h] | Doubling Time (A549 cells [1]; 10 µM) [h] | IC50 (c-Kit enzyme) [nM] | IC50 (HCoV-OC43; Betacoronavirus 1, OC43, 48 h) [µM] | also measured
Cc1ccc(NC(=O)c2ccc(CN3CCN(C)CC3)c(O)c2)cc1Nc1nc(-c2cccnc2)cs1 [M1] | 21.75 | 21.89 | 23.72 | 52.78 | 1090 | 4.7 | IC50 (approximate), SARS-CoV-2 M^pro activity, GFP normalized to TagBFP2 (SARS-CoV-2 M^pro): did not show inhibition of M^pro activity
Cc1ccc(OC(=O)c2ccc(CN3CCN(C)CC3)cc2)cc1Nc1nc(-c2cccnc2)cs1 [M5] | 22.37 | 21.95 | 21.83 | 25.19 |  |  | IC50, HCoV-OC43 antiviral assay (HCoV-OC43; [3]): no measurable antiviral activity
Cc1ccc(NC(=O)c2ccc(CN3CCN(C)CC3)cc2)cc1Nc1nc(-c2cccnc2)cs1 [masitinib] |  |  |  |  |  |  | Ki (M^pro): 2600 nM
Cc1ccc(NC(=O)c2ccc(CN3CCN(C)CC3)cc2)cc1Nc1nc(-c2cccnc2)cs1 [masitinib (TFA), Masitinib trifluoroacetate salt] |  |  |  |  |  |  | effect on cell growth (in words) (A549 cells [2]; 3 µM dose): still inhibited cell division; effect on cell growth (in words) (A549 cells [2]; 10 µM compound dose): completely inhibited cell growth; IC50 (HCoV-OC43; [3]): 3.98 µM
CC(=O)Nc1ccc(C)c(Nc2nc(-c3cccnc3)cs2)c1 [M4] | 22.01 | 21.47 | 22.28 | 37.36 |  | 5.7 | 
Cc1ccc(NC(=O)c2ccc(CN3CCN(C)CC3)cc2O)cc1Nc1nc(-c2cccnc2)cs1 [M2] | 21.52 | 21.44 | 21.57 | 33.63 | 233 | 6.77 | IC50 (SARS-CoV-2 M^pro): 8.35 µM
Cc1ccc(NC(=O)c2ccc(CN3CCN(C)CC3)cc2)cc1Nc1nc(-c2cccnc2)cs1 [masitinib (Original), masitinib] |  |  |  |  |  | 1.71 | 
Cc1ccc(C(=O)Nc2ccc(C)c(Nc3nc(-c4cccnc4)cs3)c2)cc1 [M3] | 22.13 | 21.49 | 22.49 | 30.76 | 77 | 3.99 | IC50 (SARS-CoV-2 M^pro): 2.54 µM
